Target: T1, thromboxane synthetase (Cavia porcellus, UniProt H0UT36)
T1 construct: from tissue; host or cells: citrated whole blood (platelets) of albino male Dunkin-Hartley guinea pigs (printed 'Dunkin-Bartley') dosed orally
T1 sequence (H0UT36 1-533): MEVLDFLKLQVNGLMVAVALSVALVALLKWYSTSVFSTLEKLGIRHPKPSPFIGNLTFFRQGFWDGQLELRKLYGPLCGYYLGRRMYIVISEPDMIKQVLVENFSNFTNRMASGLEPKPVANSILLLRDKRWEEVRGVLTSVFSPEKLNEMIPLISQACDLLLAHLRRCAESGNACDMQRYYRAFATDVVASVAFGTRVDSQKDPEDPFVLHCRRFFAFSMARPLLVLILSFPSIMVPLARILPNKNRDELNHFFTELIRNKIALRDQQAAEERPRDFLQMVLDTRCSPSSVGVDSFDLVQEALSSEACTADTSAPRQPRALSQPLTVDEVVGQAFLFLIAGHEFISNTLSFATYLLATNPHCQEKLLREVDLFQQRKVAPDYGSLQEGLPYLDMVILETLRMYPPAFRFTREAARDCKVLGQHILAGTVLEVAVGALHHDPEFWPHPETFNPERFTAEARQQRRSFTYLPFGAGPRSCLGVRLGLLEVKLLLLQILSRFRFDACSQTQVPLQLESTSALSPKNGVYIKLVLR
Test: Whole blood aggregation and thromboxane formation in vivo: guinea pig (plasma TXB2 by radioimmunoassay after oral dosing)
Conditions: plasma TXB2 in collagen-stimulated citrated whole blood of guinea pigs dosed orally, versus vehicle controls; normalized to platelet count; dose not given

## CCOC(=O)c1ccc(/C=C(/COCc2ccc(OC)cc2)Cn2ccnc2)c(OC)c1 (single isomer, unassigned) [11 (E-isomer), ethyl 4-[3-(1H-imidazol-1-yl)-2-[[(4-methoxyphenyl]methoxy]methyl]-lE-propenyl]-3-methoxybenzoate]
  % INHIBITION: -36.0%

— patent EP0150892A2, “Substituted alkylidene imidazoles” (G.D. Searle & Co., priority 1984, dated 1985)
